IC50 data for 32 compounds are collected here from patent US20230295212A1 (ROME Therapeutics, Inc., priority 2022, published 2023).

T1 sequence (O00370 whole entry, looked up): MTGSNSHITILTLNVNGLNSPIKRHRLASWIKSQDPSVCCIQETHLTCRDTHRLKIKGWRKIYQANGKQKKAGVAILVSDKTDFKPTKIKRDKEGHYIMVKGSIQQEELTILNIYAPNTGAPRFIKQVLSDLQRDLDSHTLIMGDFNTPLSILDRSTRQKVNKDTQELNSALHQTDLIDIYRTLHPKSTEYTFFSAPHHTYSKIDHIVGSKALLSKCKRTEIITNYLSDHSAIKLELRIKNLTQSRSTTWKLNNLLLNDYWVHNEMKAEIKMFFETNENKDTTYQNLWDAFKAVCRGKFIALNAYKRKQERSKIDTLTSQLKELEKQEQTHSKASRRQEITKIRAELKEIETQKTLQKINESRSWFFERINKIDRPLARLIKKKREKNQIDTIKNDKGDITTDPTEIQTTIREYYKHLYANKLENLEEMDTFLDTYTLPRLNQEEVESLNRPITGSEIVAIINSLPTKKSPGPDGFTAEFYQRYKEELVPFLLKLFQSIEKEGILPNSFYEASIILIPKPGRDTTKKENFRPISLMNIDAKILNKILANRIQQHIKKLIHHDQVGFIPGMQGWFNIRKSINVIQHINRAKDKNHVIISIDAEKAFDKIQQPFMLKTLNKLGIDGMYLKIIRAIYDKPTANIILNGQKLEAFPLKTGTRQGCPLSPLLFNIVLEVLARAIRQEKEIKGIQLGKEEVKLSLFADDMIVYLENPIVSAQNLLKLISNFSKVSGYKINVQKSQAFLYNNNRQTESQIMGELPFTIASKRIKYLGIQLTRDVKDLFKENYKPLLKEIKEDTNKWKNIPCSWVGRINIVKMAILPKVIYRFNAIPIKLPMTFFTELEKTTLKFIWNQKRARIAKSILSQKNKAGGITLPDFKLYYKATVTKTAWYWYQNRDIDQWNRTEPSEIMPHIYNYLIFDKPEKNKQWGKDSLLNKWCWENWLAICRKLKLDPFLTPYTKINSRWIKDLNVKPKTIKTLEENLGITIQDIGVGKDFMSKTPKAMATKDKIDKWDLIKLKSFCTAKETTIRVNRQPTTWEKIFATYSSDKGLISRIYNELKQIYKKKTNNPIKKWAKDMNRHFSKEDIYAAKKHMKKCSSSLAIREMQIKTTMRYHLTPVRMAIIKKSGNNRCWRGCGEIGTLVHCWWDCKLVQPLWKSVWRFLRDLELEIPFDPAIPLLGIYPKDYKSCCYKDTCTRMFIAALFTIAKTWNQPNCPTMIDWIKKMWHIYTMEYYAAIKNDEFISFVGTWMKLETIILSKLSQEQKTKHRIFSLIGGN

The first experiment has as its target T1, LINE1 reverse transcriptase (Homo sapiens, UniProt O00370).
T1 construct: expressed in transfected cells; host or cells: HeLa Tet-On 3G (Takara, cat no 631183)
Description: Stable artificial-intron Cis LINE1 reporter assay (HeLa Tet-On 3G, Firefly luciferase). The format is cell-based. The note with it: HeLa L1 artificial-intron reporter cells, doxycycline 500 ng/mL, 72 h, class symbols. The method in brief: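 HeLa Tet-On 3G clone stably carrying a bi-directional doxycycline-inducible artificial-intron LINE1 reporter, plated at 8,000 cells/well onto serially diluted compound. Expression induced with 500 ng/mL doxycycline (final); Firefly luciferase luminescence (Dual-Glo) read 72 h after plating as LINE1 activity.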
In general terms: In a reporter assay the amount or activity of a reporter protein is the signal.
One may read the IC50 as the concentration that inhibits the measured activity by half. A lower IC50 goes with inhibition by little substance. Take `Nc1ccn([C@H]2C[C@H](O)[C@](CO)(CF)O2)c(=O)n1` [Compound 45, 4-amino-1-((2R,4S,5R)-5-(fluoromethyl)-4-hydroxy-5-(hydroxymethyl)tetrahydrofuran-2-yl)pyrimidin-2(1H)-one]: the IC50 was in the range of 0.05 to 0.1 µM.

Take `CCC[C@]1(CO)O[C@@H](n2ccc(N)nc2=O)C[C@@H]1O` [Compound 60, 4-amino-1-((2R,4S,5R)-4-hydroxy-5-(hydroxymethyl)-5-propyltetrahydrofuran-2-yl)pyrimidin-2(1H)-one]: the IC50 was > 1 µM.

For `CC[C@]1(CO)O[C@@H](n2cc(F)c(N)nc2=O)[C@@H](F)[C@@H]1O` [Compound 77, 4-amino-1-[(2R,3S,4R,5R)-5-ethyl-3-fluoro-4-hydroxy-5-(hydroxymethyl)oxolan-2-yl]-5-fluoropyrimidin-2-one], the half-maximal inhibitory concentration (IC50) was ≤ 0.05 µM.

`Nc1ccn([C@@H]2O[C@@](CO)(C3CC3)[C@@H](O)[C@@H]2F)c(=O)n1` [Compound 121, 4-amino-1-[(2R,3S,4R,5R)-5-cyclopropyl-3-fluoro-4-hydroxy-5-(hydroxymethyl)oxolan-2-yl] pyrimidin-2-one] displayed a 50% inhibitory concentration (IC50) of 0.1 to 0.25 µM.

For the compound `Nc1nc(=O)n([C@@H]2OC(CO)(CO)[C@@H](O)[C@@H]2F)cc1F` [Compound 177, 4-amino-5-fluoro-1-((2R,3S,4R)-3-fluoro-4-hydroxy-5,5-bis(hydroxymethyl)tetrahydrofuran-2-yl) pyrimidin-2(1H)-one], the IC50 was > 1 µM.

`Nc1ccn([C@@H]2O[C@@](CO)(CCl)[C@@H](O)C2(F)F)c(=O)n1` [Compound 119, 4-amino-1-((2R,4R,5R)-5-(chloromethyl)-3,3-difluoro-4-hydroxy-5-(hydroxymethyl)tetrahydrofuran-2-yl)pyrimidin-2(1H)-one] showed an IC50 of 0.05 to 0.1 µM.

Turning to `C=C[C@]1(CO)O[C@@H](n2ccc(N)nc2=O)C[C@@H]1O` [Compound 43, 4-amino-1-((2R,4S,5R)-4-hydroxy-5-(hydroxymethyl)-5-vinyltetrahydrofuran-2-yl)pyrimidin-2(1H)-one], the 50% inhibitory concentration (IC50) is ≤ 0.05 µM.

Take `Nc1nc2c(ncn2[C@@H]2O[C@@](CO)(CCl)[C@@H](O)[C@@H]2F)c(=O)[nH]1` [Compound 70, 2-amino-9-((2R,3S,4R,5R)-5-(chloromethyl)-3-fluoro-4-hydroxy-5-(hydroxymethyl)-tetrahydrofuran-2-yl)-1,9-dihydro-6H-purin-6-one]: the concentration for half-maximal inhibition (IC50) is > 1 µM.

Regarding `CC[C@]1(CO)O[C@@H](n2ccc(N)nc2=O)C[C@@H]1O` [Compound 44, 4-amino-1-((2R,4S,5R)-5-ethyl-4-hydroxy-5-(hydroxymethyl)tetrahydrofuran-2-yl)pyrimidin-2(1H)-one], the 50% inhibitory concentration (IC50) was ≤ 0.05 µM.

For the compound `C#C[C@]1(CO)O[C@@H](n2cc(C)c(=O)[nH]c2=O)[C@@H](F)[C@@H]1O` [Compound 39, 1-((2R,3S,4R,5R)-5-ethynyl-3-fluoro-4-hydroxy-5-(hydroxymethyl)tetrahydrofuran-2-yl)-5-methylpyrimidine-2,4(1H,3H)-dione], the IC50 lay within 0.25 to 1 µM.

For `CC[C@]1(CO)O[C@@H](n2cnc3c(N)nc(F)nc32)C[C@@H]1O` [Compound 64, (2R,3S,5R)-5-(6-amino-2-fluoro-9H-purin-9-yl)-2-ethyl-2-(hydroxymethyl)tetrahydrofuran-3-ol], the IC50 was 0.05 to 0.1 µM.

Regarding `C=C[C@]1(CO)O[C@@H](n2ccc(N)nc2=O)[C@@H](F)[C@@H]1O` [Compound 47, 4-amino-1-((2R,3S,4R,5R)-3-fluoro-4-hydroxy-5-(hydroxymethyl)-5-vinyltetrahydrofuran-2-yl)pyrimidin-2(1H)-one], the IC50 was ≤ 0.05 µM.

`Nc1nc(=O)n([C@@H]2O[C@@](CO)(CCl)[C@@H](O)[C@@H]2Cl)cc1F` [Compound 137, 4-amino-1-[(2R,3S,4R,5R)-3-chloro-5-(chloromethyl)-4-hydroxy-5-(hydroxymethyl)oxolan-2-yl]-5-fluoropyrimidin-2-one]: the half-maximal inhibitory concentration (IC50) lay within 0.25 to 1 µM.

With `C#C[C@]1(CO)O[C@@H](n2ccc(=O)[nH]c2=O)[C@H](F)[C@@H]1O` [Compound 33, 1-((2R,3R,4R,5R)-5-ethynyl-3-fluoro-4-hydroxy-5-(hydroxymethyl)tetrahydrofuran-2-yl)pyrimidine-2,4(1H,3H)-dione], the IC50 is > 1 µM.

Take `CC[C@]1(CO)O[C@@H](n2cc(F)c(N)nc2=O)C[C@@H]1O` [Compound 82, 4-amino-1-((2R,4S,5R)-5-ethyl-4-hydroxy-5-(hydroxymethyl)tetrahydrofuran-2-yl)-5-fluoropyrimidin-2(1H)-one]: the IC50 was ≤ 0.05 µM.

With `C=C[C@]1(CO)O[C@@H](n2cnc3c(=O)[nH]c(N)nc32)[C@@H](F)[C@@H]1O` [Compound 63, 2-amino-9-[(2R,3S,4R,5R)-5-ethenyl-3-fluoro-4-hydroxy-5-(hydroxymethyl)oxolan-2-yl]-1H-purin-6-one], the IC50 is 0.25 to 1 µM.

For `C#C[C@]1(CO)O[C@@H](n2cc(F)c(N)nc2=O)C[C@@H]1O` [Compound 107, 4-amino-1-((2R,4S,5R)-5-ethynyl-4-hydroxy-5-(hydroxymethyl)tetrahydrofuran-2-yl)-5-fluoropyrimidin-2(1H)-one], the 50% inhibitory concentration (IC50) was ≤ 0.05 µM.

In the case of `Cc1cn([C@H]2C[C@H](F)[C@@](C)(CO)O2)c(=O)[nH]c1=O` [Compound 180, 1-((2R,4S,5R)-4-fluoro-5-(hydroxymethyl)-5-methyltetrahydrofuran-2-yl)-5-methylpyrimidine-2,4(1H,3H)-dione], the IC50 is > 1 µM.

Turning to `Cc1cn([C@H]2C[C@H](F)[C@](CO)(CCl)O2)c(=O)[nH]c1=O` [Compound 7, 1-((2R,4S,5R)-5-(chloromethyl)-4-fluoro-5-(hydroxymethyl)tetrahydrofuran-2-yl)-5-methylpyrimidine-2,4(1H,3H)-dione], the IC50 was > 1 µM.

For the compound `Cc1cn([C@H]2C[C@H](O)[C@](CO)(CCl)O2)c(=O)[nH]c1=O` [Compound 4, 1-((2R,4S,5R)-5-(chloromethyl)-4-hydroxy-5-(hydroxymethyl)tetrahydrofuran-2-yl)-5-methylpyrimidine-2,4(1H,3H)-dione], the concentration for half-maximal inhibition (IC50) is > 1 µM.

In turn, `Nc1ccn([C@H]2C[C@H](O)[C@](CO)(CC(F)(F)F)O2)c(=O)n1` [Compound 62, 4-amino-1-[(2R,4S,5R)-4-hydroxy-5-(hydroxymethyl)-5-(2,2,2-trifluoroethyl)oxolan-2-yl] pyrimidin-2-one] registered an IC50 of 0.25 to 1 µM.

In the case of `[N-]=[N+]=N[C@]1(CO)O[C@@H](n2ccc(N)nc2=O)C[C@@H]1O` [Compound 49, 4-amino-1-((2R,4S,5R)-5-azido-4-hydroxy-5-(hydroxymethyl)tetrahydrofuran-2-yl)pyrimidin-2(1H)-one], the 50% inhibitory concentration (IC50) fell in the range of 0.05 to 0.1 µM.

For the compound `C=C[C@]1(COC(=O)C(C)C)O[C@@H](n2ccc(N)nc2=O)C[C@@H]1OC(=O)C(C)C` [Compound 53, [(2R,3S,5R)-5-(4-amino-2-oxopyrimidin-1-yl)-2-ethenyl-3-[(2-methylpropanoyl)oxy]oxolan-2-yl] methyl 2-methylpropanoate], the IC50 lay in the range of 0.25 to 1 µM.

The compound `CC(C)C(=O)OC[C@@]1(CCl)O[C@@H](n2cc(F)c(N)nc2=O)[C@@H](F)[C@@H]1OC(=O)C(C)C` [Compound 173, (2R,3R,4S,5R)-5-(4-amino-5-fluoro-2-oxopyrimidin-1(2H)-yl)-2-(chloromethyl)-4-fluoro-2-((isobutyryloxy)methyl)tetrahydrofuran-3-yl isobutyrate] returned an IC50 of 0.25 to 1 µM.

Take `CSC[C@]1(CO)O[C@@H](n2cc(F)c(N)nc2=O)[C@@H](F)[C@@H]1O` [Compound 135]: the IC50 was > 1 µM.

Regarding `Nc1ccn([C@H]2C[C@H](O)[C@](CO)(C(F)(F)F)O2)c(=O)n1` [Compound 21, 4-amino-1-((2R,4S,5R)-4-hydroxy-5-(hydroxymethyl)-5-(trifluoromethyl)tetrahydrofuran-2-yl)pyrimidin-2(1H)-one], the IC50 was in the range of 0.25 to 1 µM.

Take `C=C[C@]1(CO)O[C@@H](n2cnc3c(N)nc(F)nc32)C[C@@H]1O` [Compound 109, (2R,3S,5R)-5-(6-amino-2-fluoro-9H-purin-9-yl)-2-(hydroxymethyl)-2-vinyltetrahydrofuran-3-ol]: the IC50 is ≤ 0.05 µM.

The compound `Nc1ccn([C@H]2C[C@H](O)[C@](CO)(C3CC3)O2)c(=O)n1` [Compound 16, 4-amino-1-((2R,4S,5R)-5-cyclopropyl-4-hydroxy-5-(hydroxymethyl)tetrahydrofuran-2-yl)pyrimidin-2(1H)-one] displayed an IC50 of 0.25 to 1 µM.

With `Nc1nc2c(ncn2[C@H]2C[C@H](O)[C@](CO)(CF)O2)c(=O)[nH]1` [Compound 46, 2-amino-9-((2R,4S,5R)-5-(fluoromethyl)-4-hydroxy-5-(hydroxymethyl)tetrahydrofuran-2-yl)-1,9-dihydro-6H-purin-6-one], the IC50 is 0.05 to 0.1 µM.

Staying with this experiment, now noted: HeLa L1 artificial-intron reporter cells, doxycycline 500 ng/mL, 72 h, numeric bounds.
Take `C#C[C@@H]1[C@H](n2ccc(N)nc2=O)O[C@@](CO)(CCl)[C@H]1O` [Compound 17, 4-amino-1-((2R,3S,4S,5R)-5-(chloromethyl)-3-ethynyl-4-hydroxy-5-(hydroxymethyl)tetrahydrofuran-2-yl)pyrimidin-2(1H)-one]: the IC50 was > 30 µM.

For the compound `NC(=O)[C@]1(CO)O[C@@H](n2cc(F)c(N)nc2=O)[C@@H](F)[C@@H]1O` [Compound 138, (2R,3R,4S,5R)-5-(4-amino-5-fluoro-2-oxopyrimidin-1-yl)-4-fluoro-3-hydroxy-2-(hydroxymethyl)oxolane-2-carboxamide], the IC50 is > 30 µM.

On to `Nc1nc(=O)n([C@@H]2O[C@@](CO)(C(F)(F)F)[C@@H](O)[C@@H]2O)cc1F` [Compound 95, 4-amino-1-((2R,3S,4S,5R)-3,4-dihydroxy-5-(hydroxymethyl)-5-(trifluoromethyl)tetrahydrofuran-2-yl)-5-fluoropyrimidin-2(1H)-one], for which the concentration for half-maximal inhibition (IC50) was > 30 µM.
